Drawing on PubChem BioAssay AID1259407 (Chemical Carcinogenesis Research Information System (CCRIS), 2018), this text covers mutagenic call for 4 compounds.

The test system of this data set is CCRIS mutagenicity, Ames/micronucleus/aberration tests. Briefly: CCRIS mutagenicity studies.
[1] abbreviates: Test System: AMES SALMONELLA TYPHIMURIUM, Strain/Indicator: TA98, Metabolic Activation: NONE, Method: STANDARD PLATE.
[2] abbreviates: Test System: AMES SALMONELLA TYPHIMURIUM, Strain/Indicator: TA98, Metabolic Activation: RAT, LIVER, S-9, AROCLOR 1254, Method: STANDARD PLATE.
[3] abbreviates: Test System: AMES SALMONELLA TYPHIMURIUM, Strain/Indicator: TA100, Metabolic Activation: NONE, Method: STANDARD PLATE.
Setting [4] is: Test System: AMES SALMONELLA TYPHIMURIUM, Strain/Indicator: TA100, Metabolic Activation: RAT, LIVER, S-9, AROCLOR 1254, Method: STANDARD PLATE.
Where [5] appears, read: Test System: AMES SALMONELLA TYPHIMURIUM, Strain/Indicator: TA1535, Metabolic Activation: NONE, Method: STANDARD PLATE.
[6] abbreviates: Test System: AMES SALMONELLA TYPHIMURIUM, Strain/Indicator: TA1535, Metabolic Activation: RAT, LIVER, S-9, AROCLOR 1254, Method: STANDARD PLATE.
Setting [7] is: Test System: AMES SALMONELLA TYPHIMURIUM, Strain/Indicator: TA1537, Metabolic Activation: NONE, Method: STANDARD PLATE.
Setting [8] is: Test System: AMES SALMONELLA TYPHIMURIUM, Strain/Indicator: TA1537, Metabolic Activation: RAT, LIVER, S-9, AROCLOR 1254, Method: STANDARD PLATE.
The mark [9] stands for this setting: Test System: AMES SALMONELLA TYPHIMURIUM, Strain/Indicator: TA1538, Metabolic Activation: NONE, Method: STANDARD PLATE.
[10] abbreviates: Test System: AMES SALMONELLA TYPHIMURIUM, Strain/Indicator: TA1538, Metabolic Activation: RAT, LIVER, S-9, AROCLOR 1254, Method: STANDARD PLATE.

Activity calls are given as the source filed them. How the calls were made is not given here.

In the case of `Nc1nc2ccc([N+](=O)[O-])cc2s1`, the mutagenic call was “active; positive” (Test System: AMES SALMONELLA TYPHIMURIUM, Strain/Indicator: TA98, Metabolic Activation: HAMSTER, LIVER, S-9, AROCLOR 1254, Method: STANDARD PLATE); “active; positive” under setting [1]; “active; positive” under setting [2]; “active; positive” (Test System: AMES SALMONELLA TYPHIMURIUM, Strain/Indicator: TA100, Metabolic Activation: HAMSTER, LIVER, S-9, AROCLOR 1254, Method: STANDARD PLATE); “inactive; negative” under setting [3]; “active; positive” under setting [4]. In addition, the mutagenic call is, setting by setting: (Test System: AMES SALMONELLA TYPHIMURIUM, Strain/Indicator: TA1535, Metabolic Activation: HAMSTER, LIVER, S-9, AROCLOR 1254, Method: STANDARD PLATE) “active; positive”; under setting [5], “inactive; negative”; under setting [6], “inactive; negative”; (Test System: AMES SALMONELLA TYPHIMURIUM, Strain/Indicator: TA1537, Metabolic Activation: HAMSTER, LIVER, S-9, AROCLOR 1254, Method: STANDARD PLATE) “active; positive”; under setting [7], “inactive; negative”; under setting [8], “inactive; negative”. Moreover, the mutagenic call is “active; positive” (Test System: AMES SALMONELLA TYPHIMURIUM, Strain/Indicator: TA1538, Metabolic Activation: HAMSTER, LIVER, S-9, AROCLOR 1254, Method: STANDARD PLATE); “active; positive” under setting [9]; “active; positive” under setting [10]; “inactive; negative. reevaluation of results: negative” (Test System: MOUSE LYMPHOMA, Strain/Indicator: L5178Y (TK+/TK-), Metabolic Activation: NONE, Method: SUSPENSION/PLATE); “inactive; negative. reevaluation of results: negative” (Test System: MOUSE LYMPHOMA, Strain/Indicator: L5178Y (TK+/TK-), Metabolic Activation: RAT, LIVER, S-9, AROCLOR 1254, Method: SUSPENSION/PLATE).

As to `c1ccc2c(c1)ccc1c3c(ccc12)CCC3`, the mutagenic call runs as follows: under setting [3], “inactive; negative”; under setting [4], “inactive; negative”.

Consider `C=CC(=O)OCCCCCOC(=O)C=C`, for which the mutagenic call under setting [1] is “inactive; negative”; the mutagenic call under setting [2] is “inactive; negative”; the mutagenic call (Test System: AMES SALMONELLA TYPHIMURIUM, Strain/Indicator: TA98, Metabolic Activation: RAT, LIVER, S-9, SODIUM PHENOBARBITAL, Method: STANDARD PLATE) is “inactive; negative”; the mutagenic call under setting [3] was “inactive; negative”; the mutagenic call under setting [4] was “inactive; negative”; the mutagenic call (Test System: AMES SALMONELLA TYPHIMURIUM, Strain/Indicator: TA100, Metabolic Activation: RAT, LIVER, S-9, SODIUM PHENOBARBITAL, Method: STANDARD PLATE) is “inactive; negative”. Also, the mutagenic call is “inactive; negative” under setting [5]; “inactive; negative” under setting [6]; “inactive; negative” (Test System: AMES SALMONELLA TYPHIMURIUM, Strain/Indicator: TA1535, Metabolic Activation: RAT, LIVER, S-9, SODIUM PHENOBARBITAL, Method: STANDARD PLATE); “inactive; negative” under setting [7]; “inactive; negative” under setting [8]; “inactive; negative” (Test System: AMES SALMONELLA TYPHIMURIUM, Strain/Indicator: TA1537, Metabolic Activation: RAT, LIVER, S-9, SODIUM PHENOBARBITAL, Method: STANDARD PLATE). For the same compound, the mutagenic call reads like this: under setting [9], “inactive; negative”; under setting [10], “inactive; negative”; (Test System: AMES SALMONELLA TYPHIMURIUM, Strain/Indicator: TA1538, Metabolic Activation: RAT, LIVER, S-9, SODIUM PHENOBARBITAL, Method: STANDARD PLATE) “inactive; negative”.

Regarding `O=C(Nc1cccc2c(=O)c3c(ccc4c5cc(NC(=O)c6ccccc6)c6c(=O)c7ccccc7c(=O)c6c5[nH]c43)c(=O)c12)c1ccccc1`, the mutagenic call is “inactive; negative” (Test System: AMES SALMONELLA TYPHIMURIUM, Strain/Indicator: TA98, Metabolic Activation: HAMSTER, LIVER, S-9, AROCLOR 1254 (10%), Method: PREINCUBATION); “inactive; negative” (Test System: AMES SALMONELLA TYPHIMURIUM, Strain/Indicator: TA98, Metabolic Activation: NONE, Method: PREINCUBATION); “inactive; negative” (Test System: AMES SALMONELLA TYPHIMURIUM, Strain/Indicator: TA98, Metabolic Activation: RAT, LIVER, S-9, AROCLOR 1254 (10%), Method: PREINCUBATION); “inactive; negative” (Test System: AMES SALMONELLA TYPHIMURIUM, Strain/Indicator: TA100, Metabolic Activation: HAMSTER, LIVER, S-9, AROCLOR 1254 (10%), Method: PREINCUBATION); “inactive; negative” (Test System: AMES SALMONELLA TYPHIMURIUM, Strain/Indicator: TA100, Metabolic Activation: NONE, Method: PREINCUBATION); “inactive; negative” (Test System: AMES SALMONELLA TYPHIMURIUM, Strain/Indicator: TA100, Metabolic Activation: RAT, LIVER, S-9, AROCLOR 1254 (10%), Method: PREINCUBATION). In addition, the mutagenic call is “inactive; negative” (Test System: AMES SALMONELLA TYPHIMURIUM, Strain/Indicator: TA1535, Metabolic Activation: HAMSTER, LIVER, S-9, AROCLOR 1254 (10%), Method: PREINCUBATION); “inactive; negative” (Test System: AMES SALMONELLA TYPHIMURIUM, Strain/Indicator: TA1535, Metabolic Activation: NONE, Method: PREINCUBATION); “inactive; negative” (Test System: AMES SALMONELLA TYPHIMURIUM, Strain/Indicator: TA1535, Metabolic Activation: RAT, LIVER, S-9, AROCLOR 1254 (10%), Method: PREINCUBATION); “inactive; negative” (Test System: AMES SALMONELLA TYPHIMURIUM, Strain/Indicator: TA1537, Metabolic Activation: HAMSTER, LIVER, S-9, AROCLOR 1254 (10%), Method: PREINCUBATION); “inactive; negative” (Test System: AMES SALMONELLA TYPHIMURIUM, Strain/Indicator: TA1537, Metabolic Activation: NONE, Method: PREINCUBATION); “inactive; negative” (Test System: AMES SALMONELLA TYPHIMURIUM, Strain/Indicator: TA1537, Metabolic Activation: RAT, LIVER, S-9, AROCLOR 1254 (10%), Method: PREINCUBATION). Besides, the mutagenic call is “active; positive” (Test System: Ames Salmonella typhimurium, Strain/Indicator: TA98, Metabolic Activation: None, Method: Preincubation); “inactive; negative” (Test System: Ames Salmonella typhimurium, Strain/Indicator: TA100, Metabolic Activation: None, Method: Preincubation); “inactive; negative” (Test System: Ames Salmonella typhimurium, Strain/Indicator: TA102, Metabolic Activation: None, Method: Preincubation); “inactive; negative” (Test System: Ames Salmonella typhimurium, Strain/Indicator: TA1535, Metabolic Activation: None, Method: Preincubation).
